The source made the active and inactive calls.
Experiments:
[1] = Drug metabolism in mouse microsome assessed as formation of monohydroxylated metabolite; assay type: ADME; settings: microsomes
[2] = Toxicity in ip dosed mouse assessed as motor impairment by rotarod test; assay type: organism-based; settings: in vivo
[3] = target: T1, 5-hydroxytryptamine receptor 1A (Homo sapiens, UniProt P08908); assay: Binding affinity to 5-HT1A (unknown origin)
T1 sequence (P08908 whole entry): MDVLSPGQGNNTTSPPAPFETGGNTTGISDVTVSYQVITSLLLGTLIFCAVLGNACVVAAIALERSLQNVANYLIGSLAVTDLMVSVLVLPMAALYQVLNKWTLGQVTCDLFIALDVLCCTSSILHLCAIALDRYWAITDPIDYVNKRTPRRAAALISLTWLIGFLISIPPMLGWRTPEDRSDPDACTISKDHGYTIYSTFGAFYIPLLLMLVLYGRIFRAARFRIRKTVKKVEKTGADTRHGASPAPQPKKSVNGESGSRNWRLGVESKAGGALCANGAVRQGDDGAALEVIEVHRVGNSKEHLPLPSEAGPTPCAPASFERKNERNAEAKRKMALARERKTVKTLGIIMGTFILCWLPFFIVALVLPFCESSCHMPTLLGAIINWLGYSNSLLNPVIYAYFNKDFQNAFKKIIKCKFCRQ

Astrocyte [4] = assay: Cytotoxicity against mouse Astrocyte assessed as reduction in cell viability at 100 uM incubated for 24 hrs by LDH assay; assay type: cell-based
[5] = Genotoxicity in Salmonella typhimurium TA100 assessed as number of revertant at 75 ug by AMES test (reference value: 64.3 to 130.7); assay type: toxicity, Salmonella enterica subsp. enterica serovar Typhimurium; settings: in vivo; dose 75 µg
Mus musculus [6] = assay: Antiallodynic activity in mouse model of OXA-induced peripheral neuropathy assessed as mean latency time to nocifensive response at 15 mg/kg, ip administered after 7 days of OXA stimulation and measured after 1 hr by cold plate method (reference value: 57.64 +/- 1.267 sec); assay type: functional
Mus musculus [7] = assay: Antiallodynic activity in mouse model of OXA-induced peripheral neuropathy assessed as mean paw withdrawal threshold at 15 mg/kg, ip administered after 3 hrs of OXA stimulation and measured after 1 hr by Von-frey method (reference value: 3.144 +/- 0.169 g); assay type: functional
[8] = Antioxidant activity assessed as DPPH radical scavenging activity at 125 to 1000 uM by microplate method; assay type: functional; settings: dose microM 125-1000
[9] = Genotoxicity in Salmonella typhimurium TA98 assessed as mutagenic index at 200 ug by AMES test; assay type: toxicity, Salmonella enterica subsp. enterica serovar Typhimurium; settings: in vivo; dose 200 µg
Mus musculus [10] = assay: Antiallodynic activity in mouse model of OXA-induced peripheral neuropathy assessed as mean paw withdrawal threshold at 15 mg/kg, ip administered after 7 days of OXA stimulation and measured after 1 hr by Von-frey method (reference value: 3.192 +/- 0.181 g); assay type: functional
Mus musculus [11] = assay: Anticonvulsant activity in ip dosed mouse assessed as protection against current-induced seizure by maximal electroshock seizure test; assay type: functional
[12] = Genotoxicity in Salmonella typhimurium TA98 assessed as number of revertant at 10 ug by AMES test (reference value: 8 to 8.3); assay type: toxicity, Salmonella enterica subsp. enterica serovar Typhimurium; settings: in vivo; dose 10 µg
[13] = Genotoxicity in Salmonella typhimurium TA100 assessed as mutagenic index at 75 ug by AMES test; assay type: toxicity, Salmonella enterica subsp. enterica serovar Typhimurium; settings: in vivo; dose 75 µg
[14] = Genotoxicity in Salmonella typhimurium TA98 assessed as mutagenic index at 750 ug by AMES test; assay type: toxicity, Salmonella enterica subsp. enterica serovar Typhimurium; settings: in vivo; dose 750 µg
[15] = Genotoxicity in Salmonella typhimurium TA100 assessed as mutagenic index at 1 ug by AMES test; assay type: toxicity, Salmonella enterica subsp. enterica serovar Typhimurium; settings: in vivo; dose 1 µg
[16] = Genotoxicity in Salmonella typhimurium TA100 assessed as number of revertant at 200 ug by AMES test (reference value: 64.3 to 130.7); assay type: toxicity, Salmonella enterica subsp. enterica serovar Typhimurium; settings: in vivo; dose 200 µg
Astrocyte [17] = assay: Cytotoxicity against mouse Astrocyte assessed as reduction in cell viability at 100 uM incubated for 48 hrs by trypan blue assay; assay type: cell-based
[18] = Genotoxicity in Salmonella typhimurium TA98 assessed as number of revertant at 500 ug by AMES test (reference value: 8 to 8.3); assay type: toxicity, Salmonella enterica subsp. enterica serovar Typhimurium; settings: in vivo; dose 500 µg
[19] = Toxicity in mouse assessed as lethality at 50 mg/kg, ip; assay type: organism-based; settings: in vivo
Astrocyte [20] = assay: Cytotoxicity against mouse Astrocyte assessed as reduction in cell viability at > 25 uM measured upto 48 hrs by crystal violet staining colorimetric assay; assay type: cell-based
[21] = Genotoxicity in Salmonella typhimurium TA100 assessed as mutagenic index at 10 ug by AMES test; assay type: toxicity, Salmonella enterica subsp. enterica serovar Typhimurium; settings: in vivo; dose 10 µg
[22] = Genotoxicity in Salmonella typhimurium TA98 assessed as number of revertant at 75 ug by AMES test (reference value: 8 to 8.3); assay type: toxicity, Salmonella enterica subsp. enterica serovar Typhimurium; settings: in vivo; dose 75 µg
[23] = Genotoxicity in Salmonella typhimurium TA100 assessed as number of revertant at 1 ug by AMES test (reference value: 64.3 to 130.7); assay type: toxicity, Salmonella enterica subsp. enterica serovar Typhimurium; settings: in vivo; dose 1 µg
[24] = Protection index, ratio of TD50 for toxicity in ip dosed mouse to ED50 for anticonvulsant activity in ip dosed mouse; assay type: organism-based; settings: in vivo, read-out: PI
[25] = Genotoxicity in Salmonella typhimurium TA98 assessed as mutagenic index at 75 ug by AMES test; assay type: toxicity, Salmonella enterica subsp. enterica serovar Typhimurium; settings: in vivo; dose 75 µg
in vitro [26] = settings: mouse, microsomes
Description: Metabolic stability in mouse microsome assessed as half life

[27] = Genotoxicity in Salmonella typhimurium TA100 assessed as number of revertant at 0.1 ug by AMES test (reference value: 64.3 to 130.7); assay type: toxicity, Salmonella enterica subsp. enterica serovar Typhimurium; settings: in vivo; dose 0.1 µg
[28] = Genotoxicity in Salmonella typhimurium TA98 assessed as mutagenic index at 10 ug by AMES test; assay type: toxicity, Salmonella enterica subsp. enterica serovar Typhimurium; settings: in vivo; dose 10 µg
in vitro [29] = settings: mouse, microsomes; remark: listed apart in the source
Description: Metabolic stability in mouse microsome assessed as intrinsic clearance

Mus musculus [30] = assay: Antiallodynic activity in mouse model of OXA-induced peripheral neuropathy assessed as mean latency time to nocifensive response at 15 mg/kg, ip administered after 3 hrs of OXA stimulation and measured after 1 hr by cold plate method (reference value: 59.76 +/- 0.16 sec); assay type: functional
[31] = Genotoxicity in Salmonella typhimurium TA100 assessed as mutagenic index at 200 ug by AMES test; assay type: toxicity, Salmonella enterica subsp. enterica serovar Typhimurium; settings: in vivo; dose 200 µg
Astrocyte [32] = assay: Cytotoxicity against human Astrocyte assessed as reduction in cell viability at 50 uM incubated for 24 hrs by MTT assay; assay type: cell-based
[33] = Genotoxicity in Salmonella typhimurium TA98 assessed as number of revertant at 750 ug by AMES test (reference value: 8 to 8.3); assay type: toxicity, Salmonella enterica subsp. enterica serovar Typhimurium; settings: in vivo; dose 750 µg
[34] = Genotoxicity in Salmonella typhimurium TA100 assessed as mutagenic index at 0.1 ug by AMES test; assay type: toxicity, Salmonella enterica subsp. enterica serovar Typhimurium; settings: in vivo; dose 0.1 µg
[35] = Genotoxicity in Salmonella typhimurium TA98 assessed as mutagenic index at 500 ug by AMES test; assay type: toxicity, Salmonella enterica subsp. enterica serovar Typhimurium; settings: in vivo; dose 500 µg
[36] = Genotoxicity in Salmonella typhimurium TA98 assessed as number of revertant at 200 ug by AMES test (reference value: 8 to 8.3); assay type: toxicity, Salmonella enterica subsp. enterica serovar Typhimurium; settings: in vivo; dose 200 µg
[37] = Genotoxicity in Salmonella typhimurium TA100 assessed as number of revertant at 10 ug by AMES test (reference value: 64.3 to 130.7); assay type: toxicity, Salmonella enterica subsp. enterica serovar Typhimurium; settings: in vivo; dose 10 µg

SMILES: Cc1cc(C)c(C)c(OCCN[C@@H]2CCCC[C@H]2O)c1 (racemic)
- Drug metabolism [1]: Metabolite_Detected
- TD50 [2]: 78.3 mg/kg
- Ki [3]: 1.01 µM
- Activity (Astrocyte [4]): Toxic
- Activity [5]: 105
- Time (Mus musculus [6]): 9.278 s
- Activity (Mus musculus [7]): 2.222 g
- Activity [8]: inactive
- Activity_index [9]: 0.8
- Activity (Mus musculus [10]): 2.122 g
- ED50 (Mus musculus [11]): 15.7 mg/kg
- Activity [12]: 7.3
- Activity_index [13]: 1.4
- Activity_index [14]: 1.2
- Activity_index [15]: 1.1
- Activity [16]: 49
- Activity (Astrocyte [17]): Toxic
- Activity [18]: 8.7
- Activity [19]: Non-Toxic
- Activity (Astrocyte [20]): Toxic
- Activity_index [21]: 2.6
- Activity [22]: 6.3
- Activity [23]: 138.3
- selectivity ratio [24]: 5
- Activity_index [25]: 0.8
- half-life (in vitro [26]): 27.2 min
- Activity [27]: 147
- Activity_index [28]: 0.9
- microsomal CLint (in vitro [29]): 128 µL/min/mg
- Time (Mus musculus [30]): 22.333 s
- Activity_index [31]: 0.7
- Activity (Astrocyte [32]): Toxic
- Activity [33]: 9.3
- Activity_index [34]: 1.1
- Activity_index [35]: 1.1
- Activity [36]: 6.7
- Activity [37]: 185.5

Source: ChEMBL document CHEMBL4725268, “Anticonvulsant and analgesic in neuropathic pain activity in a group of new aminoalkanol derivatives” (Bioorg Med Chem Lett, 2020)
